How the values were obtained:
Assay type in all cases: physicochemical
[1] = Visual assessment score (clarity of gel in 1 cm cuvette); details: for Clarity Visual (assessment score): scale −12 to 8
From the text: A gel contained within a 1 cm thick cuvette was placed directly on to a sheet of white paper on which 21 sets of figures where printed in black. The size and thickness of the figures varied systematically and were numbered from −12 (the largest, thickest set) through 0 to 8 (the smallest thinnest set) The score given to each gel was the highest numbered set which could be read clearly through the gel, the higher the number, the higher the clarity.

[2] = Gelling of water-immiscible cosmetic liquids in 96 well glass micro-titre plate; parameters: key: gel; g4: gel after overnight (18 hrs) storage at 4° C.; g22: gel after overnight (18 hrs) storage at 22° C.; sg: soft gel; sg22: soft gel after overnight (18 hrs) storage at 22° C.; solution; *: the test at 4° C. was not carried out; details: for gelling of ISA: 150° C. 2.5 hours, cooled to ambient
Protocol: In this Example, various samples of esterified cellobiose prepared as in Example 1 or 2 above, were used to gel water-immiscible cosmetic liquids, in accordance with the procedure given below, in which a large number of gels can be prepared simultaneously.
The samples were tested in a 96 well (8×12 rows) glass micro-titre plate. […] About 0.01 or 0.02 g of each esterified cellobiose material was placed into 8 consecutive wells in a single row, so that each well contained approximately 5% or 10% of the cellobiose ester. The balance in each well comprised the cosmetic liquid by addition of approximately 0.2 g of the respective liquid to each cell. A glass lid was placed on top of the plate. The plate was carefully placed in a thermostatically controlled fan-assisted oven set at 150° C. for 2.5 hours. The plate was removed from the oven and allowed to cool naturally to ambient laboratory temperature. The contents of the wells were assessed at the end of the cooling period, by visual inspection and by poking the contents of each well with a micro-spatula. The plates were stored at […] for 18 hours and the contents inspected, and further stored for 18 hours at 4° C. and inspected for a third time. The results obtained in the tests are summarised in Table 5 below, in which the legend is as follows: […]

[3] = Light transmission at 580 nm (% T); details: 580 nm
Protocol: The translucency of a composition may be measured by placing a sample of standardised thickness in the light path of a spectrophotometer and measuring transmittance, as a percentage of light transmitted in the absence of the gel.
This test was carried out using a dual-beam spectrophotometer. The sample of composition was poured hot into a 4.5 ml cuvette made of poly(methyl-methacrylate) (PMMA) and allowed to cool to an ambient temperature of 20-25° C. Such a cuvette gives a 1 cm thickness of composition. […] A transmittence measured at any temperature in the range from 20-25° C. is usually adequately accurate, but measurement is made at 22° C. if more precision is required.

[4] = 9% REF4 plus 1% of the named material in 60:40 hydrogenated polydecene:DC245
[5] = 9% REF4 plus 1% of the named material
[6] = 5% cellobiose ester in Fluid AP
[7] = 5% cellobiose ester in Mineral oil
[8] = 5% cellobiose ester in Polydecene
[9] = 10% cellobiose ester in Fluid AP
[10] = 10% cellobiose ester in Mineral oil
[11] = 10% cellobiose ester in Polydecene
[12] = 9% REF2 and 1% of the specified ester in 60:40 hydrogenated polydecene:DC245

Structure (SMILES)	Clarity Visual (appearance) [1, 4]	Clarity Visual (assessment score) [1, 5]	gelling of DC556 ([2]; 5% cellobiose ester in DC556)	gelling of Fluid AP [2, 6]	gelling of ISA ([2]; 5% cellobiose ester in ISA)	gelling of Mineral oil [2, 7]	gelling of Polydecene [2, 8]	gelling of DC556 ([2]; 10% cellobiose ester in DC556)	gelling of Fluid AP [2, 9]	gelling of ISA ([2]; 10% cellobiose ester in ISA)	gelling of Mineral oil [2, 10]	gelling of Polydecene [2, 11]	Clarity % T [3, 5]	other results
CCCCCCCCCC(=O)OCC1OC(OC2C(COC(=O)CCCCCCCCC)OC(OC(=O)c3ccc4ccccc4c3)C(OC(=O)CCCCCCCCC)C2OC(=O)CCCCCCCCC)C(OC(=O)CCCCCCCCC)C(OC(=O)CCCCCCCCC)C1OC(=O)CCCCCCCCC (mixture of isomers) [Ex 2.7]	translucent	0	gel	gel	gel	gel	gel	gel	gel	gel	gel	gel	8.7%	–
CCCCCCCCCC(=O)OCC1OC(OC2C(COC(=O)CCCCCCCCC)OC(OC(=O)c3ccccc3)C(OC(=O)CCCCCCCCC)C2OC(=O)CCCCCCCCC)C(OC(=O)CCCCCCCCC)C(OC(=O)CCCCCCCCC)C1OC(=O)CCCCCCCCC (mixture of isomers) [Ex 2.1]	translucent	−1	gel	gel	gel	gel	gel	gel	gel	gel	gel	gel	9.53%	–
CCCCCCCCCC(=O)OCC1OC(OC2C(COC(=O)CCCCCCCCC)OC(OC(=O)c3ccccc3)C(OC(=O)CCCCCCCCC)C2OC(=O)CCCCCCCCC)C(OC(=O)CCCCCCCCC)C(OC(=O)CCCCCCCCC)C1OC(=O)CCCCCCCCC (mixture of isomers) [Ex 2.6]	translucent	−8	–	–	–	–	–	–	–	–	–	–	4.5%	–
CCCCCCCCC(=O)OCC1OC(O)C(OC(=O)CCCCCCCC)C(OC(=O)CCCCCCCC)C1OC1OC(COC(=O)CCCCCCCC)C(OC(=O)CCCCCCCC)C(OC(=O)CCCCCCCC)C1OC(=O)CCCCCCCC (mixture of isomers) [REF 5, reference compound]	–	–	–	–	–	–	–	–	–	–	–	–	–	Clarity Visual (assessment score) [1, 12]: translucent 4; Clarity Visual (appearance) ([1]; 60:40 hydrogenated polydecene:DC245 gelled with 9% REF2 and 1% of the specified cellobiose ester): transparent/; Clarity % T [3, 12]: 31%
CCCCCCCCCC(=O)OCC1OC(O)C(OC(=O)CCCCCCCCC)C(OC(=O)CCCCCCCCC)C1OC1OC(COC(=O)CCCCCCCCC)C(OC(=O)CCCCCCCCC)C(OC(=O)CCCCCCCCC)C1OC(=O)CCCCCCCCC (mixture of isomers) [REF 6, reference compound]	opaque	< −12	–	–	–	–	–	–	–	–	–	–	0.8%	–
CCCCCCCCC(=O)OCC1OC(OC2C(COC(=O)CCCCCCCC)OC(OC(=O)C3CCCCC3)C(OC(=O)CCCCCCCC)C2OC(=O)CCCCCCCC)C(OC(=O)CCCCCCCC)C(OC(=O)CCCCCCCC)C1OC(=O)CCCCCCCC (mixture of isomers) [Ex 3.3, cellobiose heptanonanoate monocyclohexanoate]	–	–	–	–	–	–	–	–	–	–	–	–	–	Visual ([1]; gel in 60:40 w/w Silkflo 364:DC245, score scale −12 to 8): >8; % T ([3]; gel in 60:40 w/w Silkflo 364:DC245): 53%
